“And” between values parts separate entries of the source, which are not always exact repeats. Equal values may be shown once. Where a name gives a salt, the structure may show the parent alone.
Tested on: patients with relapsed or refractory acute myeloid leukemia or high‐risk myelodysplastic syndromes
Description: This was a phase 1, open‐label, non‐randomized dose escalation study of milademetan as monotherapy (Part 1) or in combination with AZA (Part 1A; ClinicalTrials.gov identifier: NCT02319369).
Dose escalation of milademetan to determine the maximum tolerated dose (MTD) was guided by a Bayesian logistic regression model (BLRM) following escalation with overdose control principle with a starting dose of 60 mg based on safety and tolerability data from the first‐in‐human study of milademetan in solid tumors or lymphoma.[20]
In Part 1, 9 escalating dose cohorts (Figure S1) were investigated.
In Part 1A, milademetan was given in combination with AZA (75 mg/m^2 dose administered subcutaneously or intravenously on Days 1–7) with 2 dosing schedules of milademetan: in Cohorts 10 and 12, milademetan was administered QD for 10 days (Days 5–14; 160 and 200 mg, respectively); in Cohorts 11 and 13 milademetan was given QD for 7 days (Days 8–14; 160 and 200 mg, respectively).
Safety was the primary endpoint of the study and included treatment‐emergent adverse events (TEAE), serious adverse events (SAE), dose‐limiting toxicities (DLT), physical examination findings, and clinical laboratory values. TEAE were categorized according to the Medical Dictionary for Regulatory Activities (MeDRA) v17.0 and graded according to the National Cancer Institute‐Common Terminology for Adverse Events (NCI‐CTCAE) v5.0. Participants were followed up until 30 days after completion of study treatment. A DLT was defined as any TEAE of grade ≥3 not attributable to disease or disease‐related processes occurring during Cycle 1 in each dose‐level cohort.
The final MTD for each dosing regimen (QD 21/28 dosing and others) was decided based on considerations of the respective MTD estimated by the BLRM and on an overall assessment of safety data from subsequent cycles and pharmacokinetics (PK)/pharmacodynamics (PD) information collected at all different doses tested.
Cohorts of ≥3 DLT evaluable participants were enrolled per dose level, and the dose escalation decisions were guided by BLRM, governed by escalation with overdose control principle.

[1] = not assessed as related to milademetan

## CC1(C)CCC2(CC1)N[C@@H](C(=O)N[C@@H]1CC[C@@H](C(N)=O)OC1)[C@H](c1ccnc(Cl)c1F)[C@]21C(=O)Nc2cc(Cl)ccc21 [Milademetan monotherapy, milademetan tosylate hydrate]
human, in vivo
  Abdominal pain, TEAE Grade ≥3: 1 (2) n (%)
  Cough, TEAE Grade ≥3: 0 n (%)
  Cough, TEAE all grades: 3 (5) n (%)
  Decreased appetite, TEAE Grade ≥3: 1 (2) n (%)
  Decreased appetite, TEAE all grades: 13 (23) n (%)
  Dehydration, TEAE Grade ≥3: 1 (2) n (%)
  Dehydration, TEAE all grades: 6 (11) n (%)
  Depression, TEAE Grade ≥3: 0 n (%)
  Depression, TEAE all grades: 2 (4) n (%)
  Device‐related infection, TEAE Grade ≥3: 0 n (%)
  Device‐related infection, TEAE all grades: 0 n (%)
  Diarrhea, TEAE Grade ≥3: 3 (5) n (%)
  Diarrhea, TEAE all grades: 32 (56) n (%)
  Diarrhea, most common (>20%) TEAE: 25 [44%] n [%]
  Dizziness, TEAE Grade ≥3: 1 (2) n (%)
  Dizziness, TEAE all grades: 6 (11) n (%)
  Dyspnea, TEAE Grade ≥3: 0 n (%)
  Dyspnea, TEAE all grades: 8 (14) n (%)
  Epistaxis, TEAE Grade ≥3: 0 n (%)
  Epistaxis, TEAE all grades: 1 (2) n (%)
  Escherichia infection, TEAE Grade ≥3: 0 n (%)
  Escherichia infection, TEAE all grades: 0 n (%)
  Fatigue, TEAE Grade ≥3: 4 (7) n (%)
  Hyperuricemia, TEAE Grade ≥3: 2 (4) n (%)
  Hyperuricemia, TEAE all grades: 6 (11) n (%)
  Hypokalemia, TEAE Grade ≥3: 3 (5) n (%)
  Hypokalemia, TEAE all grades: 12 (21) n (%)
  Hypomagnesemia, TEAE Grade ≥3: 0 n (%)
  Hypomagnesemia, TEAE all grades: 9 (16) n (%)
  Hyponatremia, TEAE Grade ≥3: 2 (4) n (%)
  Hyponatremia, TEAE all grades: 2 (4) n (%)
  Hypophosphatemia, TEAE Grade ≥3: 0 n (%)
  Hypophosphatemia, TEAE all grades: 0 n (%)
  Hypotension, TEAE Grade ≥3: 2 (4) n (%)
  Hypotension, TEAE all grades: 9 (16) n (%)
  Increased ALT, TEAE Grade ≥3: 0 n (%)
  Increased ALT, TEAE all grades: 1 (2) n (%)
  Insomnia, TEAE Grade ≥3: 0 n (%)
  Insomnia, TEAE all grades: 4 (7) n (%)
  Lung infection, TEAE Grade ≥3: 11 (19) n (%)
  Lung infection, TEAE all grades: 11 (19) n (%)
  Maculopapular rash, TEAE Grade ≥3: 0 n (%)
  Maculopapular rash, TEAE all grades: 2 (4) n (%)
  Muscular weakness, TEAE all grades: 2 (4) n (%)
  Myalgia, TEAE Grade ≥3: 0 n (%)
  Myalgia, TEAE all grades: 1 (2) n (%)
  Nausea, TEAE Grade ≥3: 4 (7) n (%)
  Nausea, TEAE all grades: 39 (68) n (%)
  Nausea, most common (>20%) TEAE: 32 [56%] n [%]
  Neutropenia, TEAE Grade ≥3: 10 (18) n (%)
  Neutropenia, TEAE all grades: 10 (18) n (%)
  Oropharyngeal pain, TEAE Grade ≥3: 0 n (%)
  Oropharyngeal pain, TEAE all grades: 3 (5) n (%)
  Pancytopenia, TEAE Grade ≥3: 0 n (%)
  Pancytopenia, TEAE all grades: 0 n (%)
  Participants with DLT of cellulitis: 1 participant
  Participants with DLT of diarrhea: 1 participant
  Participants with DLT of fatigue: 1 participant
  Participants with DLT of hypokalemia: 1 participant
  Participants with DLT of nausea: 3 participants
  Participants with DLT of renal failure: 1 participant
  Participants with DLT of vomiting: 1 participant
  Peripheral edema, TEAE Grade ≥3: 0 n (%)
  Peripheral edema, TEAE all grades: 14 (25) n (%)
  Pneumonia, TEAE Grade ≥3: 6 (11) n (%)
  Pneumonia, TEAE all grades: 9 (16) n (%)
  Pyrexia, TEAE Grade ≥3: 1 (2) n (%)
  Pyrexia, TEAE all grades: 5 (9) n (%)
  Rhinorrhea, TEAE Grade ≥3: 0 n (%)
  Rhinorrhea, TEAE all grades: 1 (2) n (%)
  SAE: 39 (68.4) n (%)
  SAE: bacteremia: 3 [5%] n [%]
  SAE: cellulitis: 3 [5%] n [%]
  SAE: febrile neutropenia: 5 [9%] n [%]
  SAE: lung infection: 9 [16%] n [%]
  SAE: pneumonia: 7 [12%] n [%]
  SAE: pyrexia: 3 [5%] n [%]
  SAE: sepsis: 7 [12%] n [%]
  Sepsis, TEAE Grade ≥3: 8 (14) n (%)
  Sepsis, TEAE all grades: 8 (14) n (%)
  Tolerability relative to MTD: exceeded MTD
  Vomiting, most common (>20%) TEAE: 15 [26%] n [%]
In vivo
  Participants who experienced DLT: Eight
Monotherapy arm
  Dose interruptions due to TEAE: 12 (21%) n (%)
  Dose reductions due to TEAE: 3 (5%) n (%)
monotherapy, QD 21/28 and QD 14/28 dosing schedules
  Maximum tolerated dose (MTD) of milademetan: 160 mg
[1]
  Event associated with a fatal outcome: intracranial hemorrhage: 1 patient
  Event associated with a fatal outcome: lung infection: 2 patients
  Event associated with a fatal outcome: multi-organ failure: 1 patient
  Event associated with a fatal outcome: pneumonia: 1 patient
  Event associated with a fatal outcome: respiratory failure: 1 patient
  Event associated with a fatal outcome: sepsis: 4 patients
Per investigator assessment, safety analysis set
  Milademetan-related TEAE: 47 (82.5) n (%)
Safety analysis set
  Abdominal pain, TEAE all grades: 7 (12) n (%)
  Anemia, TEAE Grade ≥3: 9 (16) n (%)
  Anemia, TEAE all grades: 13 (23) n (%)
  Any TEAE, Grade ≥3: 48 (84%) n (%) and 48 (84) n (%) and 48 (84.2) n (%)
  Any TEAE, all grades: 57 n (%) and 57 (100) n (%)
  Arthralgia, TEAE Grade ≥3: 0 n (%)
  Arthralgia, TEAE all grades: 3 (5) n (%)
  Asthenia, TEAE Grade ≥3: 1 (2) n (%)
  Asthenia, TEAE all grades: 7 (12) n (%)
  Constipation, TEAE Grade ≥3: 0 n (%)
  Constipation, TEAE all grades: 3 (5) n (%)
  Contusion, TEAE Grade ≥3: 0 n (%)
  Contusion, TEAE all grades: 2 (4) n (%)
  Fatigue, TEAE all grades: 20 (35) n (%)
  Febrile neutropenia, TEAE Grade ≥3: 5 (9) n (%)
  Febrile neutropenia, TEAE all grades: 6 (11) n (%)
  Fluid overload, TEAE Grade ≥3: 0 n (%)
  Fluid overload, TEAE all grades: 2 (4) n (%)
  Fungal pneumonia, TEAE Grade ≥3: 2 (4) n (%)
  Fungal pneumonia, TEAE all grades: 2 (4) n (%)
  Headache, TEAE Grade ≥3: 0 n (%)
  Headache, TEAE all grades: 2 (4) n (%)
  Hemorrhoids, TEAE Grade ≥3: 1 (2) n (%)
  Hemorrhoids, TEAE all grades: 3 (5) n (%)
  Malaise, TEAE Grade ≥3: 0 (0) n (%)
  Malaise, TEAE all grades: 6 (11) n (%)
  Milademetan-related Grade ≥3 TEAE: 19 (33%) n (%) and 19 (33.3) n (%)
  Milademetan-related SAE: 7 (12%) n (%) and 7 (12.3) n (%)
  Milademetan-related TEAE associated with milademetan discontinuation: 5 (8.8) n (%)
  Muscular weakness, TEAE Grade ≥3: 0 n (%)
  TEAE associated with death: 9 (16%) n (%) and 9 (15.8)^a n (%)
  TEAE associated with milademetan discontinuation: 13 (23%) n (%) and 13 (22.8) n (%)
  Thrombocytopenia, TEAE Grade ≥3: 15 (26) n (%)
  Thrombocytopenia, TEAE all grades: 15 (26) n (%)
  Vomiting, TEAE Grade ≥3: 2 (4) n (%)
  Vomiting, TEAE all grades: 24 (42) n (%)

Reference: publication PMC11258486, “Phase 1 dose escalation study of the MDM2 inhibitor milademetan as monotherapy and in combination with azacitidine in patients with myeloid malignancies” (Cancer Medicine, 2024)
